Here are results for 13 compounds from patent publication US6833456B2, “Indolyl-urea derivatives of thienopyridines useful as antiangiogenic agents, and methods for their use” (Agouron Pharmaceuticals, Inc., priority 2002, dated 2004).

Where “and” joins values, the source holds several entries; their conditions need not be identical. Equal entries are not always repeated.

For test [1], the target named is T1, unphosphorylated VEGF-R2Δ50 (FLVK) (Homo sapiens, UniProt P35968, DEL940-989/E990V).
T1 construct: VEGF-R2Δ50 contains residues 806-939 and 990-1171; made in house; host or cells: baculovirus/insect cell system
T1 sequence (P35968 with tags, fused parts or gaps DEL940-989/E990V limits assumed): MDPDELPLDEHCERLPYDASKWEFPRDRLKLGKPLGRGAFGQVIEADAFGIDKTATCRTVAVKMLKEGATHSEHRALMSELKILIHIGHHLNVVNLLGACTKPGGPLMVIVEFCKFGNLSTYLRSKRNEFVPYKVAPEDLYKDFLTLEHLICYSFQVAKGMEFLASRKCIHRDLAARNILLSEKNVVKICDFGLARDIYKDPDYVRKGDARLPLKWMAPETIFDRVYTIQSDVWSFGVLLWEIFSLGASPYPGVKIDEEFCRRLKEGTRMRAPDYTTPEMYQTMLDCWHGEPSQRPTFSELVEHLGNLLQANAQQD
The experiment in a line: VEGF-R2 coupled spectrophotometric assay, unphosphorylated construct (FLVK). It is filed as biochemical. As to conditions: for inhibition at 0.05 µM: percent inhibition at 50 nM. The method, boiled down: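 Human VEGF-R2Δ50 cytosolic kinase (residues 806-939/990-1171, E990V), baculovirus-expressed, unphosphorylated form. PK/LDH-coupled NADH oxidation at 340 nm with 20 mM poly(E4Y1), 3 mM ATP, 60 mM MgCl2, 2 mM MnCl2, 200 mM HEPES pH 7.5, 5-40 nM enzyme; Ki fitted by Morrison equation.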

Test [2] has as its target T2, PDGFRβ (Homo sapiens, UniProt P09619).
T2 construct: expressed in transfected cells; host or cells: porcine aorta endothelial (PAE) cells
The experiment in a line: PAE-PDGFRβ phosphorylation in PAE-PDGFRB cells assay. It is filed as cell-based. As to conditions: PAE cells overexpressing human PDGFRβ, PDGF-BB stimulated; read-out: PAE PDGFR autophos IC50. The procedure, abridged:
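PAE cells overexpressing human PDGFRβ, serum-starved 16 h (0.1% FBS), compound 1 h at 37° C (0.5% DMSO), then 1 μg/mL PDGF-BB with 2 mM Na3VO4 for 8 min. Receptor captured by anti-PDGFRβ, phosphotyrosine detected by HRP-PY20/TMB at 450 nm; IC50 by four-parameter fit.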

For test [3], the target named is T3, KDR (VEGFR2) (Homo sapiens, UniProt P35968).
T3 construct: expressed in transfected cells; host or cells: porcine aorta endothelial (PAE) cells
T3 sequence (P35968 20-1356): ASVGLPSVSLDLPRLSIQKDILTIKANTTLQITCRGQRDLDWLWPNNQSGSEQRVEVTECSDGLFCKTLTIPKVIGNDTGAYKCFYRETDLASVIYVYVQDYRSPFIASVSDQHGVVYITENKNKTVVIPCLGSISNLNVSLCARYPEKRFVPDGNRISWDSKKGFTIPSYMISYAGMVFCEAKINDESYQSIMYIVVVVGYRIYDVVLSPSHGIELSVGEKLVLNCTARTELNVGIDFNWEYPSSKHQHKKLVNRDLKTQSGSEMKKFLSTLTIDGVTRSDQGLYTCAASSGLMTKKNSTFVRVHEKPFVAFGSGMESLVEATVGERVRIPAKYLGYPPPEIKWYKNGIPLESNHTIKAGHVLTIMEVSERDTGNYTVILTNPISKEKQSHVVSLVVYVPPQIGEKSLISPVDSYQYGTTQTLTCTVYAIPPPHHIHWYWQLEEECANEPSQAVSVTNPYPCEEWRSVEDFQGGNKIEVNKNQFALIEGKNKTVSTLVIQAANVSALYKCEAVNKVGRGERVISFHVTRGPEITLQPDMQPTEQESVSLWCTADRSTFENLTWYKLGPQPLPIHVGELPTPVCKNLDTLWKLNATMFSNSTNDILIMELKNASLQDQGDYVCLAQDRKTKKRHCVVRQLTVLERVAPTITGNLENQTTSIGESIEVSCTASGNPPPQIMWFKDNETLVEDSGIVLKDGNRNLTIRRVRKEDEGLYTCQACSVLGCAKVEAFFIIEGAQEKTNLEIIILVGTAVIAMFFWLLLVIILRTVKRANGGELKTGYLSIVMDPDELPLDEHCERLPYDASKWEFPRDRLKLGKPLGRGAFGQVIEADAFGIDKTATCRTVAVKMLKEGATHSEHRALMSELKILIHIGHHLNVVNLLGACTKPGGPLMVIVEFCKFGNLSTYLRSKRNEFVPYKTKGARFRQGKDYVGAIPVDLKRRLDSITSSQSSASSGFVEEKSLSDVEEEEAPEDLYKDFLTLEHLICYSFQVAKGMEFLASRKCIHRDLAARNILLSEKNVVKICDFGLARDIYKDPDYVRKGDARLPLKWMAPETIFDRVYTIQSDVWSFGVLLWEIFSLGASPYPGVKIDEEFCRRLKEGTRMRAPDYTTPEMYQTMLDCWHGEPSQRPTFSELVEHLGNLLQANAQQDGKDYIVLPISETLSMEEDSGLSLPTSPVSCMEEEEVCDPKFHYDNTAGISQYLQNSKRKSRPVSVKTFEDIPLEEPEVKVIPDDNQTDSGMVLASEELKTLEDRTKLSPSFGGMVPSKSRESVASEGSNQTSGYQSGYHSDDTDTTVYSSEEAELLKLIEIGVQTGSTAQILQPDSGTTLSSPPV
The test can be described thus: KDR (VEGFR2) phosphorylation in PAE-KDR cells assay. The test is classed as cell-based. As to conditions: PAE cells overexpressing human KDR, VEGF stimulated; read-out: PAE KDR autophos IC50. How it is done:
This assay determines the ability of a test compound to inhibit the autophosphorylation of KDR in porcine aorta endothelial (PAE)-KDR cells. PAE cells that overexpress human KDR were used in this assay. The cells were cultured in Ham's F12 media supplemented with 10% fetal bovine serum (FBS) and 400 ug/mL G418. Thirty thousands cells were seeded into each well of a 96-well plate in 75 μL of growth media and allowed to attach for 6 hours at 37° C. Cells were then exposed to the starvation media (Ham's F12 media supplemented with 0.1% FBS) for 16 hours. After the starvation period was over, 10 μL of test agent in 5% DMSO in starvation media were added to the test wells and 10 μL of the vehicle (5% DMSO in starvation media) were added into the control wells. The final DMSO concentration in each well was 0.5%. Plates were incubated at 37° C. for 1 hour and the cells were then stimulated with 500 ng/ml VEGF (commercially available from R & D System) in the presence of 2 mM Na3VO4 for 8 minutes. The cells were washed once with 1 mm Na3VO4 in HBSS and lysed by adding 50 μL per well of lysis buffer. One hundred μL of dilution buffer were then added to each well and the diluted cell lysate was transferred to a 96-well goat ant-rabbit coated plate (commercially available from Pierce) which was pre-coated with Rabbit anti Human Anti-flk-1 C-20 antibody (commercially available from Santa Cruz). The plates were incubated at room temperature for 2 hours and washed seven times with 1% Tween 20 in PBS. HRP-PY20 (commercially available from Santa Cruz) was diluted and added to the plate for a 30-minute incubation. Plates were then washed again and TMB peroxidase substrate (commercially available from Kirkegaard & Perry) was added for a 10-minute incubation. One hundred μL of 0.09 N H2SO4 was added to each well of the 96-well plates to stop the reaction. Phosphorylation status was assessed by spectrophotometer reading at 450 nm. IC50 values were calculated by curve fitting using a four-parameter analysis.

Test [4] deals with human umbilical vein endothelial cells (HUVEC). The experiment in a line: HUVEC+VEGF proliferation assay. It is filed as cell-based. Conditions: Homo sapiens, HUVEC, 72 h, VEGF 6 ng/mL, MTT. How it is done: This assay determines the ability of a test compound to inhibit the growth factor-stimulated proliferation of human umbilical vein endothelial cells (“HUVEC”). HUVEC cells (passage 3-4, Clonetics, Corp.) were thawed into EGM2 culture medium (Clonetics Corp) in T75 flasks. Fresh EGM2 medium was added to the flasks 24 hours later. Four or five days later, cells were exposed to another culture medium (F12K medium supplemented with 10% fetal bovine serum (FBS), 60 μg/mL endothelial cell growth supplement (ECGS), and 0.1 mg/mL heparin). Exponentially-growing HUVEC cells were used in experiments thereafter. Ten to twelve thousand HUVEC cells were plated in 96-well dishes in 100 μl of rich, culture medium (described above). The cells were allowed to attach for 24 hours in this medium. The medium was then removed by aspiration and 105 μl of starvation media (F12K+1% FBS) was added to each well. After 24 hours, 15 μl of test agent dissolved in 1% DMSO in starvation medium or this vehicle alone was added into each treatment well; the final DMSO concentration was 0.1%. One hour later, 30 μl of VEGF (30 ng/mL) in starvation media was added to all wells except those containing untreated controls; the final VEGF concentration was 6 ng/mL. Cellular proliferation was quantified 72 hours later by MTT dye reduction, at which time cells were exposed for 4 hours MTT (Promega Corp.). Dye reduction was stopped by addition of a stop solution (Promega Corp.) and absorbance at 595 nm was determined on a 96-well spectrophotometer plate reader.

T2 sequence (P09619 33-1106): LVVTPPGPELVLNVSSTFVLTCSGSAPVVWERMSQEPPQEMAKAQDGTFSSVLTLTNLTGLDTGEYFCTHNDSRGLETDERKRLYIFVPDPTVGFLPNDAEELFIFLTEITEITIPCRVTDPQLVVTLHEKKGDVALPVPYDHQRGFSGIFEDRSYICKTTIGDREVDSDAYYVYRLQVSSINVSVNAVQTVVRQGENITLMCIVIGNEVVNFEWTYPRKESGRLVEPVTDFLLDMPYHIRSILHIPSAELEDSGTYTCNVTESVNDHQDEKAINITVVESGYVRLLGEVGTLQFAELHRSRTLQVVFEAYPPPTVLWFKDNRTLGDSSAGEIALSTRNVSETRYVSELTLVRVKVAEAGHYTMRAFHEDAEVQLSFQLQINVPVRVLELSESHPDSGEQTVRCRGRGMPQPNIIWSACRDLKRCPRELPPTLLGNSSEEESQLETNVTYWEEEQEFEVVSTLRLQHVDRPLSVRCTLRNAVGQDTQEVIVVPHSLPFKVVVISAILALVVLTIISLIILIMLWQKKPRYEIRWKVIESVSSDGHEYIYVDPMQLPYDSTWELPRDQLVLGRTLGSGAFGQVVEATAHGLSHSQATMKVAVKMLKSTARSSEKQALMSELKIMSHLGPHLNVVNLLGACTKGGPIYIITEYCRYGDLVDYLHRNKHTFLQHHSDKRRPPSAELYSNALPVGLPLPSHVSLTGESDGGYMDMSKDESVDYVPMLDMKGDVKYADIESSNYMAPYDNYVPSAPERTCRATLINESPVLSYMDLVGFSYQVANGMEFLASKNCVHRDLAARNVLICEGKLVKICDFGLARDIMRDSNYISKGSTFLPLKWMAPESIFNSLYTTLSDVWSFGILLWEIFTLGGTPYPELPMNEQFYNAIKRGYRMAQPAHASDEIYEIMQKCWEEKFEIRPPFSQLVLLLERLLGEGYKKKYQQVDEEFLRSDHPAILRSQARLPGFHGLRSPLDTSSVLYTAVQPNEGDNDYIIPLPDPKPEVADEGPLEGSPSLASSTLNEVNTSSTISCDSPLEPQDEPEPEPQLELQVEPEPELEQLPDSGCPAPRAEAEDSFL

One may read the Ki as the dissociation constant of the complex between target and ligand, obtained from inhibition or displacement. For orientation: inhibition means the drop in the measured response relative to a control, in per cent. In general, IC50 refers to the concentration that inhibits the measured activity by half. In the case of `C#CCNC(=O)n1c(C)cc2cc(Nc3ccnc4cc(C(=O)N5CCC[C@@H]5CO)sc34)ccc21` [Example 1e, 5-[2-(2R-Hydroxymethyl-pyrrolidine-1-carbonyl)-thieno[3,2-b]pyridin-7-ylamino]-2-methyl-indole-1-carboxylic acid prop-2-ynylamide], the Ki in test [1] is 0.51 nM. Besides, in test [1], the inhibition at 0.05 µM amounted to 97%. Further, the IC50 in test [2] was 11.3 nM; in test [3], 0.73 nM and 0.41 nM; in test [4] it was 0.18 nM.

For the compound `CO[C@H]1CN(C(=O)c2cc3nccc(Nc4ccc5c(c4)cc(C)n5C(=O)NC4CC4)c3s2)C[C@@H]1OC` [Example 1s, 5-[2-(3S,4S-Dimethoxy-pyrrolidine-1-carbonyl)-thieno[3,2-b]pyridin-7-ylamino]-2-methyl-indole-1-carboxylic acid cyclopropylamide], the Ki in test [1] was 1.1 nM. This compound showed an inhibition at 0.05 µM in test [1] of 98%. In addition, the IC50 was 165 nM and 98 nM in test [2]; 0.42 nM and 0.7 nM in test [3]; 0.308 nM in test [4].

The compound `CNC(=O)n1c(C)cc2cc(Nc3ccnc4cc(C(=O)N5C[C@H](O)C[C@H]5C(C)(C)O)sc34)ccc21` [Example 3d, 5-{2-[(2S,4R)-4-Hydroxy-2-(1-hydroxy-1-methyl-ethyl)-pyrrolidine-1-carbonyl]-thieno[3,2-b]pyridin-7-ylamino}-2-methyl-indole-1-carboxylic acid methylamide] displayed a Ki in test [1] of 1.11 nM. The compound also displayed an inhibition at 0.05 µM in test [1] of 60%. In addition, the IC50 in test [2] is greater than 1000 nM; in test [3] it was 2.7 nM and 6.9 nM; in test [4] it was 61.6 nM.

In test [1], `CNC(=O)n1c(C)cc2c(F)c(Oc3ccnc4cc(-c5nc(C(C)(C)O)cs5)sc34)ccc21` [Example 3k, 4-Fluoro-5-{2-[4-(1-hydroxy-1-methyl-ethyl)-thiazol-2-yl]-thieno[3,2-b]pyridin-7-yloxy}-2-methyl-indole-1-carboxylic acid methylamide] registered an inhibition constant Ki of 0.071 nM and an inhibition at 0.05 µM of 100%. Besides, the half-maximal inhibitory concentration (IC50) in test [2] came to 18.4 nM. The IC50 in test [3] is 0.3 nM.

Turning to `C#CCNC(=O)n1c(C)cc2cc(Oc3ccnc4cc(C(=O)N5C[C@H](OC)[C@@H](OC)C5)sc34)ccc21` [Example 4q, 5-[2-(3S,4S-Dimethoxy-pyrrolidine-1-carbonyl)-thieno[3,2-b]pyridin-7-yloxy]-2-methyl-indole-1-carboxylic acid prop-2-ynylamide], in test [1], the Ki stood at 0.475 nM and testing at 0.05 µM gave an inhibition of 98%. In test [3], the IC50 is 0.26 nM. Besides, the concentration for half-maximal inhibition (IC50) in test [4] is 0.27 nM.

`Cc1cc2c(F)c(Oc3ccnc4cc(C(=O)N5CCC[C@H]5CO)sc34)ccc2n1C(=O)NC1CC1` [Example 5d, 4-Fluoro-5-[2-(2S-hydroxymethyl-pyrrolidine-1-carbonyl)-thieno[3,2-b]pyridin-7-yloxy]-2-methyl-indole-1-carboxylic acid cyclopropylamide]: the affinity in test [1], expressed as Ki, was 0.324 nM. For the same compound, testing at 0.05 µM in test [1] gave an inhibition of 96%. For the same compound, the IC50 in test [2] was 21.5 nM; in test [3] it was 0.53 nM and 0.44 nM and 0.275 nM; in test [4], 0.35 nM.

`CNC(=O)n1c(C)cc2c(F)c(Oc3ccnc4cc(C(=O)N5CC[C@H](OC)C5)sc34)ccc21` [Example 5f, 4-Fluoro-5-[2-(3S-methoxy-pyrrolidine-1-carbonyl)-thieno[3,2-b]pyridin-7-yloxy]-2-methyl-indole-1-carboxylic acid methylamide] yielded a Ki in test [1] of 0.095 nM. Also, in test [1], at 0.05 µM the inhibition was 100%. The IC50 in test [2] amounted to 9.9 nM; in test [3], 0.178 nM; in test [4], 0.116 nM.

On to `CO[C@H]1CCN(C(=O)c2cc3nccc(Oc4ccc5c(cc(C)n5C(=O)NC5CC5)c4F)c3s2)C1` [Example 5h, 4-Fluoro-5-[2-(3S-methoxy-pyrrolidine-1-carbonyl)-thieno[3,2-b]pyridin-7-yloxy]-2-methyl-indole-1-carboxylic acid cyclopropylamide], for which, in test [1], the Ki was determined as 0.52 nM. The compound also returned an inhibition at 0.05 µM in test [1] of 98%. For the same compound, the results for the 50% inhibitory concentration (IC50) in test [2], in test [3] and in test [4] were 9.9 nM, 0.29 nM and 0.28 nM, respectively.

With `C#CCNC(=O)n1c(C)cc2c(F)c(Oc3ccnc4cc(C(=O)N5CC[C@@H](O)C5)sc34)ccc21` [Example 5p, 4-Fluoro-5-[2-((R)-3-hydroxy-pyrrolidine-1-carbonyl)-thieno[3,2-b]pyridin-7-yloxy]-2-methyl-indole-1-carboxylic acid prop-2-ynylamide], in test [1], the inhibitory constant (Ki) was determined as 0.083 nM and the inhibition at 0.05 µM was determined as 100%. The IC50 in test [2] amounted to 4.6 nM. The IC50 in test [3] amounted to 0.35 nM.

With `C#CCNC(=O)n1c(C)cc2cc(Nc3ccnc4cc(C(=O)N5CCC[C@@H]5COC)sc34)ccc21` [Example 7d, 5-[2-(2R-Methoxymethyl-pyrrolidine-1-carbonyl)-thieno[3,2-b]pyridin-7-ylamino]-2-methyl-indole-1-carboxylic acid prop-2-ynylamide], in test [1], affinity was put at a Ki of 0.504 nM and testing at 0.05 µM gave an inhibition of 96%. For the same compound, the IC50 in test [2] was determined as 62 nM. The 50% inhibitory concentration (IC50) in test [3] is 0.26 nM.

For `CNC(=O)n1c(C)cc2cc(Oc3ccnc4cc(C(=O)N5C[C@H](OC)[C@@H](OC)C5)sc34)ccc21` [Example 8b, 5-[(2-{[(3S,4S)-3,4-Dimethoxypyrrolidin-1-yl]carbonyl}thieno[3,2-b]pyridin-7-yl)oxy]-2-dimethyl-1H-indole-1-carboxylic acid methylamide], in test [1], the Ki is 0.202 nM and the inhibition at 0.05 µM turned out to be 97%. Moreover, the IC50 in test [3] is 0.24 nM.

`CO[C@H]1CCN(C(=O)c2cc3nccc(Oc4ccc5c(c4)cc(C)n5C(=O)NCCO)c3s2)C1` [Example 9c, 5-[2-(3S-Methoxy-pyrrolidine-1-carbonyl)-thieno[3,2-b]pyridin-7-yloxy]-2-methyl-indole-1-carboxylic acid (2-hydroxy-ethyl)-amide] showed an inhibition constant (Ki) in test [1] of 3.24 nM. For the same compound, in test [1], 0.05 µM produced 81% inhibition. The IC50 was 56 nM in test [2]; 1.44 nM and 1.1 nM in test [3].

In test [1], `CCNC(=O)n1c(C)cc2cc(Oc3ccnc4cc(C(=O)N5CC[C@H](OC)C5)sc34)ccc21` [Example 9e, 5-[2-(3S-Methoxy-pyrrolidine-1-carbonyl)-thieno[3,2-b]pyridin-7-yloxy]-2-methyl-indole-1-carboxylic acid ethylamide] came in with an inhibitory constant (Ki) of 0.105 nM and an inhibition at 0.05 µM of 99%. For the same compound, the IC50 in test [2] came out at 26 nM. In addition, the IC50 in test [3] is 0.24 nM.
